Source: US20230330254A1 (Regeneron Pharmaceuticals, Inc., priority 2022, published 2023)
“And” between values parts separate entries of the source, which are not always exact repeats. Equal values may be shown once. Read-outs that look alike come from different tables or passages of the source. *1 amine or outer side, *2 acyl side, *3 side chain or, on linkers, in order; H or OH if unused. Where a SMILES comes first, the peptide text is derived from it. Side-chain parts run from the residue outwards. [ ]: non-standard residue; d: D form. The star is where a group is joined. Bip(2'-Et-4'-O(CH2)4NH2) = CCc1cc(OCCCCN[*:3])ccc1-c1ccc(C[C@H](N[*:1])C(=O)[*:2])cc1; Bip(2'-Et,4'-O(CH2)4N3) = CCc1cc(OCCCCN=[N+]=[N-])ccc1-c1ccc(C[C@H](N)C(=O)O)cc1; Malonyl(2,2-Me2,histaminyl) = CC(C)(C(=O)NCCc1cnc[nH]1)C(=O)*; Nva(5-(3,5-Me2Ph)) = Cc1cc(C)cc(CCC[C@H](N)C(=O)O)c1; Ala(1H-tetrazol-5-yl) = N[C@@H](Cc1nnn[nH]1)C(=O)O; PEG8 = NCCOCCOCCOCCOCCOCCOCCOCCOCCC(=O)O; αMePhe(2-F) = C[C@](N)(Cc1ccccc1F)C(=O)O; DBCO = C1#Cc2ccccc2N(*)Cc2ccccc21; Suc = O=C(CCC(=O)[*:2])[*:1]

How the values were obtained:
human GLP1R [1] = molecular target: T1, human GLP1R (Homo sapiens, UniProt P43220); assay: Luciferase reporter assay, HEK293/CRE-Luc/hGLP1R (Example 17); type: cell-based; parameters: engineered to express full-length human GLP1R, cynomolgus GLP1R; expressed in transfected cells; host or cells: HEK293/CRE-Luc; conditions: HEK293/CRE-Luc/hGLP1R
T1 sequence (P43220 24-463): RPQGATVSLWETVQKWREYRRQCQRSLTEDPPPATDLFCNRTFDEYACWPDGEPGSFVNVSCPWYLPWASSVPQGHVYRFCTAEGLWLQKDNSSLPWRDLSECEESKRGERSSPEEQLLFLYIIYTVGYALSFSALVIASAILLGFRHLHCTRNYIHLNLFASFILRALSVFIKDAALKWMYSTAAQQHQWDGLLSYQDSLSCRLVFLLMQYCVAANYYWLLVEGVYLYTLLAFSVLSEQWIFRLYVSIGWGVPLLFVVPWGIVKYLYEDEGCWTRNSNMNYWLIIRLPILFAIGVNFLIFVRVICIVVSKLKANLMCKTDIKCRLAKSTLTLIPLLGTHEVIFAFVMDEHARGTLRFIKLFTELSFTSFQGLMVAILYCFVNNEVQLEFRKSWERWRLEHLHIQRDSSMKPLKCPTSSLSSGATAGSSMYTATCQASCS
In short: (§1)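 HEK293 cells carrying a CRE-driven firefly luciferase reporter were exposed to 3-fold serial dilutions of payloads or linker-payloads (12 points, 0.2% DMSO final) for 4–6 h, then luminescence was read. EC50 came from a four-parameter logistic fit; S/N is top RLU over untreated wells, and relative potency and S/N are referenced to M2361.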

[2] = Water solubility of linker-payload; type: physicochemical
HEK293/CRE-Luc cells = assay: Luciferase reporter assay, HEK293/CRE-Luc cells without GLP1R (Example 17); type: cell-based, human
In short: as §1

human GLP1R [3] = molecular target: T1, human GLP1R; assay: CRE-Luc cAMP reporter assay, HEK293/CRE-Luc/hGLP1R (Example 24); type: cell-based; parameters: engineered to express full-length human GLP1R, cynomolgus GLP1R; expressed in transfected cells; host or cells: HEK293/CRE-Luc; conditions: HEK293, read-out: HEK293/CRE-Luc/hGLP1R Emax (% GLP-1)
Description: To test the activity of GLP1R agonist payloads, GLP1R agonist linker-payloads (LPs), and anti-GLP1R antibody-tethered ligands (ATLs) of the invention, a cell-based cAMP responsive luciferase reporter assay was developed. To generate the assay cell line, the firefly luciferase gene was placed under the control of a cAMP response element (CRE) located upstream of a minimal promoter and transfected into HEK293 cells and referred to herein as HEK293/CRE-Luc cells. HEK293/CRE-Luc cells were then engineered to express full-length human GLP1R (HEK293/CRE-Luc/hGLP1R), cynomolgus GLP1R (HEK293/CRE-Luc/mfGLP1R), or mouse GLP1R (HEK293/CRE-Luc/mGLP1R).
Serial dilutions of free payload and linker payloads (LP) were performed in 100% DMSO (ATCC, #4-X-5), followed by 1:100 dilution in assay media. Test articles were added to cells (1:5 dilution) with the last well in each serial dilution series serving as a blank control containing only assay media for antibodies and ATLs or assay media with 0.2% DMSO for payloads and LPs. After a 5-hour incubation at 37° C., luciferase activity was determined by addition of ONE-Glo reagent (Promega, #E6130) followed by measurement of relative light units (RLUs) on an EnVision Plate Reader (Perkin Elmer).
(§2) EC50 values for luminescence assays were determined using a four-parameter logistic equation over a 12-point dose response curve (GraphPad Prism).

human GLP1R [4] = molecular target: T1, human GLP1R; assay: b-arrestin 2 recruitment assay, PathHunter CHO/b-arrestin 2/hGLP1R cells; type: cell-based; conditions: read-out: CHO/b-arrestin 2/hGLP1R Emax (% GLP-1)
Experimental: The b-arrestin 2 recruitment assay was performed following manufacter's instructions (Eurofins DiscoverX, #93-0300E2CP0M), with minor modifications. […] Serial dilutions of free payload and LP were performed in 100% DMSO, followed by 1:100 dilution in assay media. Test articles were added to cells (1:5 dilution) with the last well in each serial dilution series serving as a blank control containing only assay media for antibodies and ATLs or assay media with 0.2% DMSO for payload and LP. After a 90-minute incubation at 37° C., PathHunter Detection Reagent (Eurofins DiscoverX, #93-0300E2CP0M) was added to the wells followed by a 1-hour incubation at room temperature. RLUs were measured on EnVision Plate Reader (Perkin Elmer).
as §2

[5] = relative to M2361 of the same experiment
[6] = ATDCs and references (Table 27)

**Q.** Which S/N (human GLP1R [1]; highest RLU / RLU of untreated wells) does the source give for `CCc1cc(OCCCCNC(=O)CCOCCOCCOCCOCCOCCOCCOCCOCCNC(=O)CCC(=O)N2Cc3ccccc3C#Cc3ccccc32)ccc1-c1ccc(C[C@H](NC(=O)[C@H](CC(=O)O)NC(=O)[C@H](CO)NC(=O)[C@@H](NC(=O)[C@](C)(Cc2ccccc2F)NC(=O)[C@@H](NC(=O)CNC(=O)[C@H](Cc2nn[nH]n2)NC(=O)C(C)(C)C(=O)NCCc2cnc[nH]2)[C@@H](C)O)[C@@H](C)O)C(=O)N[C@@H](CCCc2cc(C)cc(C)c2)C(N)=O)cc1` [LP2, DIBAC-suc-PEG8-P9] ({Malonyl(2,2-Me2,histaminyl)}-[Ala(1H-tetrazol-5-yl)]GT[αMePhe(2-F)]TSD[Bip(2'-Et-4'-O(CH2)4NH2)]([PEG8-Suc-DBCO])[Nva(5-(3,5-Me2Ph))]-NH2) here?
**A.** 323.1

**Q.** And the EC50 (human GLP1R [1]; payloads and linker-payloads, experiments A-E, M2361 repeated in each, read-out: EC50)?
**A.** 0.0742 nM

**Q.** What about the “Relative Potency (% M2361 EC50)” value (human GLP1R [1]; [5]) of the same compound?
**A.** 36.8%

**Q.** What about the “Relative Signal:Noise (% M2361)” value (human GLP1R [1]; [5]) of the same compound?
**A.** 137.0%

**Q.** What about the solubility [2] of the same compound?
**A.** ≥ 0.06 µM

**Q.** Which S/N (HEK293/CRE-Luc cells; HEK293/CRE-Luc cells without hGLP1R, ATDCs and references (Table 27)) does the source give for `CCc1cc(OCCCCN=[N+]=[N-])ccc1-c1ccc(C[C@H](NC(=O)[C@H](CC(=O)O)NC(=O)[C@H](CO)NC(=O)[C@@H](NC(=O)[C@](C)(Cc2ccccc2F)NC(=O)[C@@H](NC(=O)CNC(=O)[C@H](Cc2nn[nH]n2)NC(=O)C(C)(C)C(=O)NCCc2cnc[nH]2)[C@@H](C)O)[C@@H](C)O)C(=O)N[C@@H](CCCc2cc(C)cc(C)c2)C(N)=O)cc1` [M2361] ({Malonyl(2,2-Me2,histaminyl)}-[Ala(1H-tetrazol-5-yl)]GT[αMePhe(2-F)]TSD[Bip(2'-Et,4'-O(CH2)4N3)][Nva(5-(3,5-Me2Ph))]-NH2) here?
**A.** 1.3

**Q.** What about the EC50 (HEK293/CRE-Luc cells; HEK293/CRE-Luc cells without hGLP1R, ATDCs and references (Table 27), read-out: EC50) of the same compound?
**A.** > 20 nM

**Q.** And the S/N (HEK293/CRE-Luc cells; HEK293/CRE-Luc cells without hGLP1R, payloads and linker-payloads)?
**A.** 1.5 and 1.3

**Q.** And the EC50 (HEK293/CRE-Luc cells; Table 28, reporter cells without GLP1R, read-out: HEK293/CRE-Luc EC50)?
**A.** > 200 nM

**Q.** What about the EC50 (HEK293/CRE-Luc cells; Table 29, reporter cells without GLP1R, read-out: HEK293/CRE-Luc EC50) of the same compound?
**A.** > 30 nM

**Q.** And the Emax (human GLP1R [3])?
**A.** 95.8%

**Q.** And the “Relative Potency (% M2361 EC50)” value (human GLP1R [1]; [6])?
**A.** 100.0%

**Q.** What about the “Relative Signal:Noise (% M2361)” value (human GLP1R [1]; [6]) of the same compound?
**A.** 100.0%

**Q.** And the S/N (human GLP1R [1]; [6])?
**A.** 64.3

**Q.** What about the “Relative Potency (% M2361 EC50)” value (human GLP1R [1]; [5]) of the same compound?
**A.** 100.0%

**Q.** And the “Relative Signal:Noise (% M2361)” value (human GLP1R [1]; [5])?
**A.** 100.0%

**Q.** What about the Emax (human GLP1R [4]) of the same compound?
**A.** 107%
